The values below come from patent US7829578B1, “Aromatic ketones and uses thereof” (Oregon Health & Science University, priority 2005, dated 2010).

Like-named read-outs stand apart in the source and are kept apart here.

As a reminder, the IC50 is the midpoint of a concentration-inhibition curve.

The subject of test [1] is multi-drug resistant strains of Plasmodium falciparum (W2, Dd2, 7G8 and Tm93C1088). Nature of the test: In vitro antimalarial activity against multi-drug resistant strains. The format is cell-based. As to conditions: for IC50 values, stated in words: against multidrug resistant Plasmodium falciparum parasites; for IC50: Plasmodium falciparum. The procedure: (§1) Four different laboratory strains of P. falciparum were cultured in human erythrocytes by standard methods under a low oxygen atmosphere (5% O2, 5% CO2, 90% N2) in an environmental chamber. The culture medium was RPMI 1640, supplemented with 25 mM Hepes buffer, 25 mg/liter gentamicin sulfate, 45 mg/liter hypoxanthine, 10 mM glucose, 2 mM glutamine, and 0.5% Albumax II (complete medium). The parasites were maintained in fresh human erythrocytes suspended at a 2% hematocrit in complete medium at 37° C. Stock cultures were sub-passaged every 3 to 4 days by transfer of infected red cells to a flask containing complete medium and uninfected erythrocytes.
(§2) In vitro antimalarial activity of the test compounds was assessed by a fluorescence-based method described previously (Smilkstein et al., 2004, Antimicrobial Agents and Chemotherapy, Vol. 48, pgs. 1803-1806) (reference format?). The studies were set up in triplicate in 96 well plates with two-fold dilutions of each test compound across the plate in a total volume of 100 μl and at a final red blood cell concentration of 2% (v/v). Stock solutions of each drug were prepared by dissolving in DMSO at 10 mM. […] In every case, an additional determination was performed to ensure bracketing of the IC50 value by at least an order of magnitude.
(§3) Automated pipeting and dilution was carried out by a programmable Precision 2000 robotic station (Bio-Tek, Winooski, Vt.). An initial parasitemia of 0.2% was attained by addition of normal uninfected red cells to a stock culture of asynchronous parasite infected red cells (PRBC). The plates were incubated for 72 hrs at 37° C. in an atmosphere of 5% CO2, 5% O2, and 90% N2. After this period, the SyBrGreen I dye-detergent mixture (100 μl) was added and the plates were incubated at room temperature for an hour in the dark and then placed in a 96-well fluorescence plate reader (Gemini-EM, […]) for analysis with excitation and emission wavelength bands centered at 497 and 520 nm, respectively.

The test system of test [2] is Plasmodium parasitized red blood cells. Nature of the test: Oxygen consumption (respiration) by parasitized red blood cells (FIG. 3). Format: cell-based. To be noted: compared with atovaquone at equimolar concentrations. From the text:
While not intending to be limited to any mechanism of action, it is contemplated that some of the presently described compounds may act through inhibiting parasite growth through inhibition of the enzyme cytochrome b.

The subject of test [3] is Murine splenic lymphocytes. Nature of the test: MSLCs-concanavalin A induced proliferation (blastogenesis) cytotoxicity assay, Alamar Blue fluorescence. Format: cell-based. To be noted: Table 3, 48-hr MSLCs-concanavalin A induced proliferation. (The colour change of resazurin is a common sign of viable cells or microbes.)
For test [4], the system named is drug susceptible (D6) strain of Plasmodium falciparum. Nature of the test: In vitro antimalarial MSF (SyBrGreen I fluorescence) assay, D6 strain. The format is cell-based. To be noted: for improvement of antimalarial potency by the QZ group: compared to IC50 of the parent compound without the QZ side chain. As for the experimental part: as §1, §2, §3
Test [5] concerns multi-drug resistant (Dd2) strain of Plasmodium falciparum. Nature of the test: In vitro antimalarial MSF (SyBrGreen I fluorescence) assay, Dd2 strain. The format is cell-based. As for the experimental part: as §1, §2, §3
The subject of test [6] is multi-drug resistant strain (W2) of Plasmodium falciparum. Nature of the test: In vitro antimalarial activity, W2 strain. As to conditions: read-out: IC50 against multi-drug resistant strain (W2). Format: cell-based. As for the experimental part:
as §1
In vitro antimalarial activity of the test compounds was assessed by a fluorescence-based method described previously (Smilkstein et al., 2004, Antimicrobial Agents and Chemotherapy, Vol. 48, pgs. 1803-1806) (reference format?). […]
Automated pipeting and dilution was carried out by a programmable Precision 2000 robotic station (Bio-Tek, Winooski, Vt.). […] After this period, the SyBrGreen I dye-detergent mixture (100 μl) was added and the plates were incubated at room temperature for an hour in the dark and then placed in a 96-well fluorescence plate reader (Gemini-EM, […]) for analysis with excitation and emission wavelength bands centered at 497 and 520 nm, respectively.

The test system of test [7] is multidrug resistant Dd2 strain of P. falciparum. Nature of the test: Isobolar analysis of combination with clopidol in vitro (FIG. 4). Format: cell-based, Plasmodium falciparum. As for the experimental part: Values below the theoretical straight line of addition are considered to be indicative of synergism. This study was performed with the multidrug resistant Dd2 strain of P. falciparum.

The subject of test [8] is Murine splenic lymphocytes. Nature of the test: MSLCs-concanavalin A induced proliferation (blastogenesis) cytotoxicity assay, Alamar Blue fluorescence. Format: cell-based. As to conditions: Table 2, 24-hr MSLCs-concanavalin A induced proliferation. As for the experimental part:
*Data are the average of at least 3 independent experiments, each performed in triplicate with the aid of a Precision 2000 robotic pipeting station. IC50 values were determined by the MSF assay. […] MSLCs=Murine splenic lymphocytes. Cytotoxicity was determined using a 24-hr MSLCs-concanavalin A induced proliferation assay using the Alamar Blue fluorescence method. IVTI=in vitro therapeutic index calculated from the ratio of IC50 values based on the cytotoxicity observed in the blastogenesis assay and the antimalarial potency against the D6 strain of P. falciparum. NT=not tested.
*Data are the average of at least 3 independent experiments, each performed in triplicate with the aid of a Precision 2000 robotic pipeting station. IC50 values were determined by the MSF assay (Smilkstein et al., AAC, 2004). MSLCs=Murine splenic lymphocytes. Cytotoxicity was determined using a 48-hr MSLCs-concanavalin A induced proliferation assay using the Alamar Blue fluorescence method. IVTI=in vitro therapeutic index calculated from the ratio of IC50 values of the cytotoxicity observed in the blastogenesis assay and antimalarial potency against the D6 strain of P. falciparum. NA=not applicable; ND=not determined.

[9] abbreviates: Mus musculus, Splenic lymphocyte.
The mark [10] stands for this setting: Plasmodium falciparum, D6, Table 3, MSF assay, read-out: D6 IC50.
Setting [11] is: Table 3, MSF assay, read-out: D6 IC50.
Setting [12] is: Plasmodium falciparum, DD2, Table 3.
[13] abbreviates: Plasmodium falciparum, D6, read-out: IC50 against drug sensitive (D6) strain.
[14] abbreviates: Table 2, 72 hrs, average of at least 3 experiments.
Where [15] appears, read: Table 2, MSF assay, 72 hrs, average of at least 3 experiments, read-out: D6 IC50.

As to `O=C1C=C(OCCCCC(F)(C(F)(F)F)C(F)(F)F)C(=O)c2ccccc21` [NAP 005, 2-(5,6,6,6-tetrafluoro-5-trifluoromethyl-hexyloxy)-[1,4]naphthoquinone], in test [1], the “IC50 values, stated in words” value is given as “low nanomolar range”. Moreover, the “inhibition of oxygen consumption (respiration)” value (from here on “inhibition of oxygen consumption”) in test [2] is given as “does not inhibit oxygen consumption”.

For `COc1ccc2c(=O)c(C(=O)O)c[nH]c2c1` [compound 42], the IC50 in test [3] (setting [9]) was greater than 25000 nM; in test [4] (setting [10]) it was greater than 2500 nM.

For the compound `COc1ccc2c(=O)c(CCCCCCCCCCC(F)(F)F)c(C)[nH]c2c1` [compound 45], the IC50 in test [5] (Table 3) is 0.36 nM; in test [3], greater than 25000 nM; in test [4] (setting [11]) it was 0.2 nM.

`COc1ccc2c(=O)c(CCCCCC(F)(F)F)c(C)[nH]c2c1` [No. 44, 2-methyl-3-(6,6,6-trifluorohexyl)-7-methoxy-4(1H)-quinolone]: the “IC50 values, stated in words” value in test [1] is “low nanomolar range”. Also, the “inhibition of oxygen consumption” value in test [2] (listed as 2-methyl-3-(6,6,6-trifluorohexyl)-7-methoxy-4-quinolone) is reported as “equivalent to atovaquone at equimolar concentrations”.

Take `CCOC(=O)c1c[nH]c2cc(OC)ccc2c1=O` [compound 41]: the results for the IC50 in test [3] and in test [4] (setting [11]) were greater than 25000 nM and 440 nM, respectively.

With `COc1ccc2c(=O)c(CCCCCCCCCCC(F)(F)F)c(C)[nH]c2c1` [No. 45, 2-methyl-3-(11,11,11-trifluoro-undecy1)-7-methoxy-4(1H)-quinolone], the half-inhibitory concentration (IC50) in test [6] and in test [4] (read-out: IC50 against drug sensitive (D6) strain) was roughly 0.2 nM throughout. In addition, the “improvement of antimalarial potency by the QZ group” value (“improvement of antimalarial potency” for short) in test [4] was “more than 1,000 fold”.

As to `COc1ccc2c(=O)cc(C)[nH]c2c1` [compound 43], the IC50 in test [5] (setting [12]) is 13700 nM; in test [3] (setting [9]) it was greater than 25000 nM; in test [4] (setting [10]), 7000 nM.

Consider `COc1ccc2c(=O)c(CCCCCC(F)(F)F)c(C)[nH]c2c1` [2-methyl-3-(6,6,6-trifluorohexyl)-7-methoxy-4(1H)-quinolone], for which, in test [7], the interaction with clopidol result is recorded as “acting in synergy with clopidol”. Moreover, in test [2], the “inhibition of oxygen consumption” value is given as “inhibiting oxygen consumption by Plasmodium parasitized red blood cells in similar fashion to atovaquone”.

In the case of `COc1ccc2c(=O)cc[nH]c2c1` [compound 40], the values for the IC50 in test [3] (setting [9]) and in test [4] (setting [10]) were greater than 25000 nM and greater than 2500 nM, respectively.

In the case of `O=c1c2ccc(Cl)cc2[nH]c2cc(OCCCCCC(F)(F)F)ccc12` [No. 21, 3-(6,6,6-trifluorohexyloxy)-6-chloroacridone], the IC50 in test [1] and in test [4] (setting [13]) was 0.16 nM in each case. Moreover, in test [4], the “improvement of antimalarial potency” value is given as “more than 10,000 fold”.

Consider `O=c1c2ccc(O)cc2oc2cc(OCCCCCC(F)(F)F)ccc12` [3-(6,6,6-trifluorohexyloxy)-6-hydroxyxanthone], for which the IC50 in test [1] and in test [4] (setting [13]) was roughly 700 nM throughout. Besides, in test [4], the “improvement of antimalarial potency” value is reported as “more than 100 fold”.

Turning to `O=C1C=C(OCCCCC(F)(F)F)C(=O)c2ccccc21` [No. 35, 2-(5,5,5-trifluoropentyloxy)-1,4-naphthoquinone], the IC50 in test [1] and in test [4] (setting [13]) was roughly 133 nM in each case. The “improvement of antimalarial potency” value in test [4] is “roughly 50 fold”.

Regarding `COc1ccc2c(=O)c(CCCCCC(F)(F)F)c(C)[nH]c2c1` [compound 44], the IC50 in test [5] (setting [12]) was 12.8 nM; in test [3] (setting [9]), greater than 25000 nM; in test [4] (setting [10]) it was 10.2 nM.

In the case of `O=c1c2ccccc2[nH]c2cc(OCCCCCC(F)(F)F)ccc12` [compound 26], the IC50 in test [8] is greater than 25000 nM; in test [5] (setting [14]), 0.015 nM; in test [4] (setting [15]) it was 0.43 nM.

For `O=c1c2ccc(Cl)cc2[nH]c2ccc(O)cc12` [compound 8], the IC50 was 24000 nM in test [8], 260 nM in test [5] (setting [14]) and 190 nM in test [4] (setting [15]).

For `CCOC(=O)c1c[nH]c2cc(OCCCCCC(F)(F)F)ccc2c1=O` [compound 46], the half-inhibitory concentration (IC50) was 1.2 nM in test [5] (Table 3), greater than 25000 nM in test [3] and 1.2 nM in test [4] (setting [11]).
